The values below come from patent publication US5344959A, “Tetrahydronaphthyl and cyclopropyl substituted 1,3-butadienes having retinoid-like activity” (Allergan, Inc., priority 1993, dated 1994).

Bounds are passed on as bounds.

Assay [1] relates to ornithine decarboxylase (ODC). Description: inhibition of TPA induction of ornithine decarboxylase (ODC). The class given is in vivo. The settings on record: inhibition of TPA-induced ODC activity; Table 1. The text has this:
The retinoid-like activity of these compounds is confirmed through the classic measure of retinoic acid activity involving the effects of retinoic acid on ornithine decarboxylase. The original work on the correlation-between retinoic acid and decrease in cell proliferation was done by Verma & Boutwell, Cancer Research, 1977, 37,2196-2201. That reference discloses that ornithine decarboxylase (ODC) activity increased precedent to polyamine biosynthesis. It has been established elsewhere that increases in polyamine synthesis can be correlated or associated with cellular proliferation. Thus, if ODC activity could be inhibited, cell hyperproliferation could be modulated. Although all causes for ODC activity increases are unknown, it is known that 12-0-tetradecanoylphorbol-13-acetate (TPA) induces ODC activity. Retinoic acid inhibits this induction of ODC activity by TPA.

For assay [2], the system named is ornithine decarboxylase (ODC). As to conditions: general statement, cited from earlier work.

In general, IC80 refers to the concentration at which the effect reaches the 80% level. A high value points to a need for much substance. As for `CCOC(=O)[C@@H]1C[C@H]1/C=C/C=C(\C)c1cc2c(cc1C)C(C)(C)CCC2(C)C` (relative stereo) [Compound 7, Ethyl trans-2-[4-methyl-4-(3,5,5,8,8,-pentamethyl-5,6,7,8-tetrahydro-2-naphthyl)-(E),(E) 1-3-butadienyl]-1-cyclopropane carboxylate], the concentration for an effect of 80% (IC80) in assay [1] was 250 nM.

Turning to `C/C(=C\C=C\[C@@H]1C[C@H]1C(=O)O)c1ccc2c(c1)C(C)(C)CCC2(C)C` (relative stereo) [Compound 3, Trans-2-[4-methyl-4-(5,5,8,8,-tetramethyl-5,6,7,8-tetrahydro-2-naphthyl)-(E),(E) 1-3-butadienyl]-1-cyclopropane carboxylic acid], the IC80 in assay [1] is 2.6 nM.

In assay [1], `CCOC(=O)[C@@H]1C[C@@H]1/C=C/C=C(\C)c1ccc2c(c1)C(C)(C)CCC2(C)C` (relative stereo) [Compound 1, Ethyl cis-2-[4-methyl-4-(5,5,8,8,-tetramethyl-5,6,7,8-tetrahydro-2-naphthyl)-(E),(E) 1-3-butadienyl]-1-cyclopropane carboxylate] registered a concentration for an effect of 80% (IC80) of 8.3 nM.

As for `CCOC(=O)[C@@H]1C[C@@H]1/C=C/C=C(\C)c1cc2c(cc1C)C(C)(C)CCC2(C)C` (relative stereo) [Compound 5, Ethyl cis-2-[4-methyl-4-(3,5,5,8,8,-pentamethyl-5,6,7,8-tetrahydro-2-naphthyl)-(E),(E) 1-3-butadienyl]-1-cyclopropane carboxylate], the 80% effect concentration (IC80) in assay [1] is > 300 nM.

On to `CC1=C(/C=C/C(C)=C/C=C/C(C)=C/C(=O)O)C(C)(C)CCC1` [Retinoic acid], for which the “inhibition of induction of ODC activity by TPA” value in assay [2] (literature) was “inhibits”.

Consider `C/C(=C\C=C\[C@H]1C[C@H]1C(=O)O)c1cc2c(cc1C)C(C)(C)CCC2(C)C` (relative stereo) [Compound 6, Cis-2-[4-methyl-4-(3,5,5,8,8,-pentamethyl-5,6,7,8-tetrahydro-2-naphthyl)-(E),(E) 1-3-butadienyl]-1-cyclopropane carboxylic acid], for which, in assay [1], the 80% effect level (IC80) was put at 638 nM.

In turn, `C/C(=C\C=C\[C@H]1C[C@H]1C(=O)O)c1ccc2c(c1)C(C)(C)CCC2(C)C` (relative stereo) [Compound 4, Cis-2-[4-methyl-4-(5,5,8,8,-tetramethyl-5,6,7,8-tetrahydro-2-naphthyl)-(E),(E) 1-3-butadienyl]-1-cyclopropane carboxylic acid] gave an 80% effect concentration (IC80) in assay [1] of 35 nM.

Regarding `CCCCCCCCCCCCCC(=O)O[C@@H]1[C@@H](C)[C@@]2(O)[C@@H](C=C(CO)C[C@]3(O)C(=O)C(C)=C[C@@H]23)[C@@H]2C(C)(C)[C@]12OC(C)=O` [12-0-tetradecanoylphorbol-13-acetate], the “induction of ODC activity” value in assay [2] (known) was “induces”.

On to `CCOC(=O)[C@@H]1C[C@H]1/C=C/C=C(\C)c1ccc2c(c1)C(C)(C)CCC2(C)C` (relative stereo) [Compound 2, Ethyl trans 2-[4-methyl-4(5,6,7,8-tetrahyro-5,5,8,8-tetramethyl-2-naphthyl)E,E 1-3 butadienyl] 1-cyclopropane carboxylate], for which the 80% effect level in assay [1] (IC80) was put at 2.1 nM.
